Experimental findings from patent US12023388B2, “Detection and treatment of caries and microcavities with nanoparticles” (THE REGENTS OF THE UNIVERSITY OF MICHIGAN, priority 2015, dated 2024) are described below.

This test in a line: Cavity diagnosis testing under dental curing lamp with ImageJ image analysis. On the set-up: species or system human.

Description: Extracted teeth are obtained from School of Dentistry, University of Michigan (human subjects exempt) and stored in 1% sodium azide before use. The teeth are painted with an acid resistant varnish leaving a 1 mm 2 enamel window on the buccal surface of the crowns of the teeth. […] At the completion of the demineralization, the teeth are rinsed with distilled H2O before subjected to caries activity test. Residual varnish is removed by washing in acetone.
Teeth are exposed to 20 microliters of sample for three minutes prior to rinsing in DI water. Rinsing is done initially for 10 seconds, and teeth are examined and photographed while illuminated with a standard dental curing lamp. Rinsing is continued for an additional 10 seconds, followed by imaging, and this is repeated for up to 5 minutes to determine “residence times” for each sample to optimize the exposure procedure.
After a 3 minute exposure followed by 20 seconds of rinsing, imaging is performed under the dental curing lamp.
Digital images are taken with a Nikon ABC camera and analyzed using ImageJ image analysis software. In particular, the “mean gray value” measurement tool is used to compare grayscale brightness between the carious lesion and the background tooth as a measurement of contrast. […]

On to FITC-dextran, for which, for the setting “controls: rinse times of more than 20 seconds, cationic StNP: up to five minutes”, the “retention in carious lesions on rinsing in DI water” value is given as “fully washed away”. Also, the “illumination of carious lesions (statistical analysis of percent intensity difference)” value (versus untreated teeth / background tooth) was “did not illuminate carious lesions”.
